The subject of experiment [1] is transient cerebral ischemia (MCAO). The experiment can be described thus: Transient cerebral ischemia middle cerebral artery occlusion (MCAO) rat model. The class given is in vivo. Conditions: MK 801 3 mg/kg i.p.; N=12. On the procedure: The enantiomer of Formula 7 was investigated in the transient cerebral ischemia middle cerebral artery occlusion (MCAO) rat model (as described in Nagasawa H. and Kogure K., Stroke, 1989, 20, 1037; and, Zea Longa E., Weinstein P. R., Carlson S, and Cummins R., Stroke, 1989, 20, 84) using male Wistar rats at 10 and 100 mg/kg (i.v.). MK 801 (Dizocilpine maleate; CAS Registry number 77086-22-7, a commercially available neuroprotectant compound) was used as a positive control (3 mg/kg, i.p.).
Rats (n=12) were randomly allocated to one of four experimental groups and were anesthetized. Blood flow from the internal carotid artery, anterior cerebral artery and posterior cerebral artery into the middle cerebral artery was blocked by this procedure. One hour after blockage, animals were treated over a 1 hour period with vehicle (administered i.v. over the one hour period), control (administered as a single i.p. dose at the start of the one hour period) and two doses of the enantiomer of Formula 7 (administered i.v. over the one hour period). Two hours after blockage, reperfusion was performed.
The animals were sacrificed and […] coronal sections of each brain were prepared. One in every forty sections (i.e. every […]) from the front to the occipital cortex was used to quantify the extent of the cerebral lesion. Slides were prepared using sections stained (according to the Nissl procedure) with cresyl violet and were examined under a light microscope.
Regional ischemic surface areas in the coronal sections of individual rats were determined according to the presence of cells with morphological changes. The areas of neuronal injury or infarction were measured and then added. The cortex and striatum volume were calculated for each animal (total ischemic surface area×0.8 mm (thickness)).
The mean volumes (.+−.S.E.M.) for each animal randomly assigned to the four experimental groups were compared using one-way ANOVA (one way ANOVA is a statistical method which compares 3 or more unmatched groups) followed by Dunnett's t-test (both methods incorporated in Statview 512+software, BarinPower, Calabasas, Calif., USA).

The next experiment deals with PC12 cells. In words: PC12 cell serum withdrawal model (MTS assay). The class given is cell-based. Conditions: control cells = 100%. The text has this:
Serum withdrawal is a cytotoxic environmental challenge that results in cell death in cultured cell lines as well as in primary cells of various tissue origins, including nerve cells. In particular, pheochromocytoma (PC) 12 cells have been widely employed as an in vitro neuronal cell model for a wide variety of neurodegenerative and cell death related disorders (Muriel, et al, Mitochondrial free calcium levels (Rhod-2 fluorescence) and ultrastructural alterations in neuronally differentiated PC12 cells during ceramide-dependent cell death, J. Comp. Neurol., 2000, 426(2), 297-315; Dermitzaki, et al, Opioids transiently prevent activation of apoptotic mechanisms following short periods of serum withdrawal, J. Neurochem., 2000, 74(3), 960-969; Carlile, et al, Reduced apoptosis after nerve growth factor and serum withdrawal: conversion of tetrameric glyceraldehyde-3-phosphate dehydrogenase to a dimer, Mol. Pharmacol., 2000, 57(1), 2-12).
PC12 cells were cultured in sterile media (RPMI 1640) supplemented with 10% heat-inactivated horse serum and 5% fetal bovine serum (FBS). The culture medium also contained Penicillin-Streptomycin-Neomycin antibiotic (50µg, 50µg, 100µg, respectively). Medium was exchanged every other day and the cells were passed in log phase near confluence.
The control cells were cultured in regular media without any treatment. An enantiomer of Formula 7 or Formula 8 (10µM) was mixed well in the medium and then applied to the cells. For the 2 day assay, an enantiomer of Formula 7 or Formula 8 (10µM) was only applied to the cells once at the time of serum withdrawal. For the 7 day assay, an enantiomer of Formula 7 or Formula 8 (10. mu.M) was applied to the cells at the time of serum withdrawal and every 48 hr thereafter when cells were changed with fresh new serum-free medium. In the serum withdrawal group, the cells were cultured in serum-free medium with no additional enantiomer of Formula 7 or Formula 8. Cell survival was determined by the 3-(4,5-dimethylthiazol-2-yl)-5-(3-carboxy-methoxyphenyl)-2-(4-sulfophenyl)-2H-tetrazolium inner salt (MTS) assay at 2 or 7 days after serum withdrawal.
At the end of the experiment, cells were washed with fresh medium and incubated with MTS solution in a humidified 37° C. with 5% CO2 incubator for 1.5 hr. After the incubation period, the cells were immediately analyzed using a Softmax program (Molecular Devices). […] The assay is based on the cellular conversion of the tetrazolium salt, MTS, into a formazan that is soluble in tissue culture medium and measured directly at 490 nm in 96-well assay plates. The absorbance is directly proportional to the number of living cells in culture. The arbitrary absorbance reading in control cells is expressed as 100% survival rate.

Where a name gives a salt, the structure may show the parent alone.

Regarding `C[C@]12N[C@H](Cc3ccccc31)c1ccccc12` [MK 801, Dizocilpine maleate, reference compound], in experiment [1], the “Mean Infarct Volume ± S.E.M., Cortex Volume” value is on record as 95.8 ± 24.5^1 mm^3; the “Mean Infarct Volume ± S.E.M., Striatum” value is reported as 56.1 ± 5.3^2 mm^3; the “Mean Infarct Volume ± S.E.M., Total” value is 151.9 ± 28.7^1 mm^3.

For the compound `NC(=O)OC[C@H](OC(N)=O)c1ccccc1Cl` [Formula 8], in the experiment with PC12 cells (10 µM applied once at serum withdrawal), the “2 Day Survival Rate” value is 66.4 ± 5.4^1%. Further, the “7 Day Survival Rate” value with PC12 cells (10 µM at serum withdrawal and every 48 hr) was 85.2 ± 0.6^2%.
